Data as given in ChEMBL document CHEMBL5150077, “Identification of TUL01101: A Novel Potent and Selective JAK1 Inhibitor for the Treatment of Rheumatoid Arthritis” (J Med Chem, 2022).
pIC50: −log10 of the molar value.

Tests used:
[1] = Plasma protein binding in human assessed as unbound fraction at 2 uM incubated for 4 hrs by LC/MS/MS based balanced dialysis method
[2] = biological target: Tyrosine-protein kinase JAK2 (Homo sapiens, UniProt O60674); assay: Inhibition of recombinant human JAK2 using KTFCGTPEYLAPEVRREPRILSEEEQEMFRDFDYIADWC as substrate incubated for 40 mins in presence of Mg/ATP mixture by [gamma p33]-ATP based scintillation counting method
[3] = Efflux ratio of apparent permeability from basolateral to apical side over apical to basolateral side in human Caco-2 cells at 10 uM incubated for 120 mins by LC-MS/MS analysis
[4] = Metabolic stability in rat hepatocytes assessed as intrinsic clearance at 1 uM incubated for 90 mins by LC/MS/MS analysis; type: ADME, cell-based, Hepatocyte
[5] = Metabolic stability in human hepatocytes assessed as intrinsic clearance at 1 uM incubated for 90 mins by LC/MS/MS analysis; type: ADME, cell-based, Hepatocyte
[6] = Microsomal stability in rat liver microsomes assessed as intrinsic clearance at 1 uM incubated for 60 mins in presence of NADPH regenerating system by LC-MS/MS analysis; type: ADME, Microsome; details: read-out: CLH
Homo sapiens [7] = species on record: Homo sapiens; assay: Selectivity index, ratio of IC50 for inhibition of recombinant human TYK2 to IC50 for inhibition of recombinant human JAK1
[8] = Apparent permeability across apical to basolateral side in human Caco-2 cells at 10 uM measured after 120 mins by LC-MS/MS analysis; details: Caco-2
Cytochrome P450 2B6 = biological target: T1, Cytochrome P450 2B6 (Homo sapiens, UniProt P20813); assay: Inhibition of CYP2B6 in human liver microsomes incubated in presence NADPH by LC-MS/MS analysis
T1 sequence (P20813 whole entry): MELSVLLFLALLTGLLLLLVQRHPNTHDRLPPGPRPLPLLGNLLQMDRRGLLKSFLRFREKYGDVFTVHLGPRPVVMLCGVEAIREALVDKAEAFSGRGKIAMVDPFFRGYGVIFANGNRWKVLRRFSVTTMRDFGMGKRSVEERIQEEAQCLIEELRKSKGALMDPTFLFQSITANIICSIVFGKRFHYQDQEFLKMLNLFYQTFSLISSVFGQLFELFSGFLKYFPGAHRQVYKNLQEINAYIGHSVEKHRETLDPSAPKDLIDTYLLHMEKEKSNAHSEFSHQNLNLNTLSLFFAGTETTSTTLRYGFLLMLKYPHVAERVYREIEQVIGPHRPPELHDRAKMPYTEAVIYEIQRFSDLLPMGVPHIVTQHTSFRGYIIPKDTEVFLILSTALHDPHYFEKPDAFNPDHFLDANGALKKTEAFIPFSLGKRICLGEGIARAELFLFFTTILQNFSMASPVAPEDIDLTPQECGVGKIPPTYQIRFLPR

[9] = Metabolic stability in mouse hepatocytes assessed as intrinsic clearance at 1 uM incubated for 90 mins by LC/MS/MS analysis; type: ADME, cell-based, Hepatocyte
[10] = Clearance in C57BL/6 mouse at 2 mg/kg, iv measured for 24 hrs by LC/MS/MS analysis; type: ADME, organism-based; details: in vivo
[11] = Microsomal stability in mouse liver microsomes assessed as intrinsic clearance at 1 uM incubated for 60 mins in presence of NADPH regenerating system by LC-MS/MS analysis; type: ADME, Microsome; details: read-out: CLH
[12] = biological target: Tyrosine-protein kinase JAK1 (Homo sapiens, UniProt P23458); assay: Inhibition of recombinant human JAK1 using MGEEPLYWSFPAKKK as substrate incubated for 40 mins in presence of Mg/ATP mixture by [gamma p33]-ATP based scintillation counting method
Homo sapiens [13] = species on record: Homo sapiens; assay: Selectivity index, ratio of IC50 for inhibition of recombinant human JAK2 to IC50 for inhibition of recombinant human JAK1
Cytochrome P450 2C9 = Cytochrome P450 2C9 (Homo sapiens, UniProt P11712); assay: Inhibition of CYP2C9 in human liver microsomes incubated in presence NADPH by LC-MS/MS analysis
[14] = Apparent permeability across basolateral to apical side in human Caco-2 cells at 10 uM measured after 120 mins by LC-MS/MS analysis
[15] = Plasma protein binding in mouse assessed as unbound fraction at 2 uM incubated for 4 hrs by LC/MS/MS based balanced dialysis method
Cytochrome P450 1A2 = biological target: T2, Cytochrome P450 1A2 (Homo sapiens, UniProt P05177); assay: Inhibition of CYP1A2 in human liver microsomes incubated in presence NADPH by LC-MS/MS analysis
T2 sequence (P05177 whole entry): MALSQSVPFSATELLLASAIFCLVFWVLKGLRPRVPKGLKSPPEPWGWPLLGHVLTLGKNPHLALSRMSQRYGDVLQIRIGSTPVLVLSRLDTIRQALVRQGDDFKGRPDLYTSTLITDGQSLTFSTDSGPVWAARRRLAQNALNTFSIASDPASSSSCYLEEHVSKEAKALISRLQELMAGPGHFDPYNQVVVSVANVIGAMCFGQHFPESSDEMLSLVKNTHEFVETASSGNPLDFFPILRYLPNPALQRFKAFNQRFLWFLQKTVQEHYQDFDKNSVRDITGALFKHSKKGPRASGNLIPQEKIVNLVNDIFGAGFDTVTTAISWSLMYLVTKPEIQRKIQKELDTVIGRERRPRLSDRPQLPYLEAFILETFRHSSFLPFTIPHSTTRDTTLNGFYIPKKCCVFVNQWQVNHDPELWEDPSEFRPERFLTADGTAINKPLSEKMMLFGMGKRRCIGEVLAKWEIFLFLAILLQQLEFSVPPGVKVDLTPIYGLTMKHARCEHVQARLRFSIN

[16] = Plasma protein binding in rat assessed as unbound fraction at 2 uM incubated for 4 hrs by LC/MS/MS based balanced dialysis method

Chain of Tyrosine-protein kinase JAK1 (P23458 whole entry): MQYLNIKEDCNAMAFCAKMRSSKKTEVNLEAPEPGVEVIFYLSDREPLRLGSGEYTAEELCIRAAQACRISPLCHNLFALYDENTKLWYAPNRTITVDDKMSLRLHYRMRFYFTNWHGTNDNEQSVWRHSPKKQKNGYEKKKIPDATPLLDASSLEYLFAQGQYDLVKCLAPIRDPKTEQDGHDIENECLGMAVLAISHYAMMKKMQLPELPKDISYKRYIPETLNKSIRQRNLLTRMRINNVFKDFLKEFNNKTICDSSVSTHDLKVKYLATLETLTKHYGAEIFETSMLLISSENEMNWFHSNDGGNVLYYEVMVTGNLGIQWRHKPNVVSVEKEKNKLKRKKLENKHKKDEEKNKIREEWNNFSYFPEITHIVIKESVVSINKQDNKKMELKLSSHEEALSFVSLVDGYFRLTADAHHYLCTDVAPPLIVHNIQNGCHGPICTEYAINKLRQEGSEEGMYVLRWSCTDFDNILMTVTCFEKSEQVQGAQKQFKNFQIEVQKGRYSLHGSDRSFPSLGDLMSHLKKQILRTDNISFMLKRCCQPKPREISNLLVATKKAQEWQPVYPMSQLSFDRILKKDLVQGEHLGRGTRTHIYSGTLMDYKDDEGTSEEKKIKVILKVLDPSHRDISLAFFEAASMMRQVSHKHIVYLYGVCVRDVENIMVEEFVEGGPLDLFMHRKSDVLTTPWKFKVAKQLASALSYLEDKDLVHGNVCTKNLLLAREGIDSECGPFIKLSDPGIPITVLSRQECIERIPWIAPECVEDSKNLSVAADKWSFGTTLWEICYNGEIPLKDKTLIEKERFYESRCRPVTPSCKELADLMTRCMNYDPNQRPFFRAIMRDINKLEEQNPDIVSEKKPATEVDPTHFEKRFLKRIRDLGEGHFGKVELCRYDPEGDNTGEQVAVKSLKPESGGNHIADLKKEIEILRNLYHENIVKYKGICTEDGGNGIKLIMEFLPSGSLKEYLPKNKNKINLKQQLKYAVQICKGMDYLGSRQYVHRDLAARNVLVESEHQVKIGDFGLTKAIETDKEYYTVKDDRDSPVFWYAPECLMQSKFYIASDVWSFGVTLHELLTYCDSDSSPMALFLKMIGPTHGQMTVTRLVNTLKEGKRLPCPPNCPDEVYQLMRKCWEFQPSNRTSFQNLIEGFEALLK
Chain of Cytochrome P450 2C9 (P11712 whole entry): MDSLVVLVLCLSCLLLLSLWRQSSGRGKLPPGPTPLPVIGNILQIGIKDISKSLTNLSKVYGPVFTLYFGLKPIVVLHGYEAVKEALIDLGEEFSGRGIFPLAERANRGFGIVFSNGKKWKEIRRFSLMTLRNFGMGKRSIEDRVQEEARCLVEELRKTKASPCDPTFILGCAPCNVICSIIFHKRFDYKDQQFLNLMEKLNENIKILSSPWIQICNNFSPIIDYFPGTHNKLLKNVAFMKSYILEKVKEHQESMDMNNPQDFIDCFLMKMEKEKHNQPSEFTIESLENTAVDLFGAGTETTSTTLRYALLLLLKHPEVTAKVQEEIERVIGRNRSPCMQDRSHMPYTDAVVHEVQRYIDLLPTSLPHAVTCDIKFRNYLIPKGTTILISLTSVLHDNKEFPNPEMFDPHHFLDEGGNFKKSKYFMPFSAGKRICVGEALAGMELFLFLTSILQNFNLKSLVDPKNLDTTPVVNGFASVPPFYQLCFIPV
Chain of Tyrosine-protein kinase JAK2 (O60674 whole entry): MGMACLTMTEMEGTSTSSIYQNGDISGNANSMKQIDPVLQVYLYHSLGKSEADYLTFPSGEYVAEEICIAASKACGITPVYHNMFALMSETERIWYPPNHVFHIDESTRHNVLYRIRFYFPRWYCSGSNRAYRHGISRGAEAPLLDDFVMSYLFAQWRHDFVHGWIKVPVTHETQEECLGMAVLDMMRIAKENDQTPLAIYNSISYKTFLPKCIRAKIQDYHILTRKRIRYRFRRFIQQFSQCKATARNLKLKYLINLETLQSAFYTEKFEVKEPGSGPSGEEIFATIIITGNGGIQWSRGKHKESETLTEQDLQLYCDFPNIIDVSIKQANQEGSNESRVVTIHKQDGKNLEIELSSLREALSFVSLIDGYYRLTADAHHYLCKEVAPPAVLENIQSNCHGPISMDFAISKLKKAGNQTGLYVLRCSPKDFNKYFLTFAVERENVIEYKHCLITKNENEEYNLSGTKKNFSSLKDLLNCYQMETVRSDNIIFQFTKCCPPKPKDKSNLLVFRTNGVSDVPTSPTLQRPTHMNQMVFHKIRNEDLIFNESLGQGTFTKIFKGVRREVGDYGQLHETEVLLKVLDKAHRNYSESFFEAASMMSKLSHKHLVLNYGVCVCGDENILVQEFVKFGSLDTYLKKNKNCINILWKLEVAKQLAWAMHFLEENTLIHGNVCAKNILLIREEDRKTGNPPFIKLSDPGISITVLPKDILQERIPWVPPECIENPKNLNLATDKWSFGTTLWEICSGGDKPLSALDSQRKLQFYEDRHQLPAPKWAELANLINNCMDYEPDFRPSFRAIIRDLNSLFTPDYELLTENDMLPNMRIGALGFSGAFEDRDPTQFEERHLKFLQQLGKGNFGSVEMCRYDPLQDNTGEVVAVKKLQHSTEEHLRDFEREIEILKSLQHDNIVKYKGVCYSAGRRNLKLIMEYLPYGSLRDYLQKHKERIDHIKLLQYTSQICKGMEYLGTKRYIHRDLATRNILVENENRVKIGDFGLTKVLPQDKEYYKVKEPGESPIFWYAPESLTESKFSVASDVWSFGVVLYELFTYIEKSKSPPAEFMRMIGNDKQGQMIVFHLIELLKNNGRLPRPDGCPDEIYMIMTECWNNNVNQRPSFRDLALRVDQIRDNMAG

Row | pIC50 [2] | efflux ratio at 2 h, 10 µM [3] | Ratio IC50 (Homo sapiens [7]) | Papp A→B at 2 h, 10 µM [8] | pIC50 (Cytochrome P450 2B6) | pIC50 [12] | Ratio IC50 (Homo sapiens [13]) | pIC50 (Cytochrome P450 2C9) | Papp B→A at 2 h, 10 µM [14] | pIC50 (Cytochrome P450 1A2) | Structure (SMILES) | fraction unbound at 4 h, 2 µM [1] | CLH [4] | CLH [5] | microsomal CLint at 1 µM [6] | CLH [9] | clearance [10] | microsomal CLint at 1 µM [11] | fraction unbound at 4 h, 2 µM [15] | fraction unbound at 4 h, 2 µM [16]
1 | 7.40 | 6.77 | 8.7 | 4.29 ×10⁻⁶ cm/s | < 4.00 | 8.52 | 13.3 | 4.33 | 29.1 ×10⁻⁶ cm/s | < 4.00 | O=C(Nc1nc2cccc(C3CCC4(CC3)CCN(C(=O)[C@@H]3CC3(F)F)CC4)n2n1)C1CC1 | 0.056 | < 6.4 µL/min/mg | < 6.4 µL/min/mg | < 9.6 µL/min/mg | 40.6 µL/min/mg | 14.9 mL/min/kg | 20.8 µL/min/mg | 0.057 | 0.067
2 | – | – | – | – | – | – | – | – | – | – | O=C(Nc1nc2cccc(C3CCC4(CC3)CN(C(=O)[C@@H]3CC3(F)F)C4)n2n1)C1CC1 | 0.176 | < 6.4 µL/min/mg | < 6.4 µL/min/mg | < 9.6 µL/min/mg | 9.1 µL/min/mg | 22.1 mL/min/kg | < 9.6 µL/min/mg | 0.259 | 0.26
3 | 6.49 | 19.5 | 2.2 | 1.6 ×10⁻⁶ cm/s | < 4.00 | 7.51 | 10.5 | 4.31 | 31.2 ×10⁻⁶ cm/s | < 4.00 | O=C(Nc1nc2cccc(C3CCC4(CC3)CCN(C(=O)[C@@H]3CC3(F)F)C4)n2n1)C1CC1 (stereo not given in full) | 0.088 | 25.6 µL/min/mg | < 6.4 µL/min/mg | 15.7 µL/min/mg | 134.3 µL/min/mg | – | 46.5 µL/min/mg | 0.112 | 0.205

Row | Structure (SMILES) | pIC50 [2] | efflux ratio at 2 h, 10 µM [3] | Ratio IC50 (Homo sapiens [7]) | Papp A→B at 2 h, 10 µM [8] | pIC50 (Cytochrome P450 2B6) | pIC50 [12] | Ratio IC50 (Homo sapiens [13]) | pIC50 (Cytochrome P450 2C9) | Papp B→A at 2 h, 10 µM [14] | pIC50 (Cytochrome P450 1A2) | fraction unbound at 4 h, 2 µM [1] | CLH [4] | CLH [5] | microsomal CLint at 1 µM [6] | CLH [9] | clearance [10] | microsomal CLint at 1 µM [11] | fraction unbound at 4 h, 2 µM [15] | fraction unbound at 4 h, 2 µM [16]
4 | O=C(Nc1nc2cccc([C@H]3CC[C@@H](NC(=O)[C@@H]4CC4(F)F)CC3)n2n1)C1CC1 | […] | […] | […] | […] | […] | 8.70 | […] | […] | […] | 5.09 | 0.085 | […] | […] | 16.9 µL/min/mg | […] | […] | 24.2 µL/min/mg | 0.148 | 0.156
